According to patent US9486398B2, “Composition” (J-OIL MILLS, INC., priority 2012, dated 2016):
Entries after “also recorded” stand apart in the source; their conditions may differ.

Test system: hairless mice Hos:HR1
Assay: Stratum corneum water-retaining function (moisture in the keratin, corneometer, back skin)
Type: in vivo
Conditions: intragastric once a day for 28 days, menaquinone-7 10 mg/kg, collagen hydrolysate 80 mg/kg, soyasapogenol 50 mg/kg
Experimental: In addition to the reference diet, the test substances shown in Table 6 were administered to the study groups in Examples and Comparative Examples. By dissolving the test substances in a 0.5% carboxymethyl cellulose sodium solution (hereinafter referred to as CMC-Na solution), the composition (skin function improving agent) was prepared.
Forty two hairless mice Hos:HR1 (male, 5-week old) were prepared. Through the 1-week acclimation period and the test period, the mice were freely fed a reference diet (product name: CRF-1, manufactured by Oriental Yeast Co., Ltd.) and water. The insolation condition was set to day and night every 12 hours. After the acclimation period, grouping of 6 mice/group was performed so that the body weight between groups was homogenous.
Continuous and forced intragastric administration of the above composition was performed to the mice once a day for 28 days using a stomach tube. The reference diet and 0.05 mL per 10 g of body weight of a 0.5% CMC-Na solution were administered to the control group.
The keratin usually contains 20% to 30% of water. […] By measuring the moisture in the keratin, the stratum corneum water-retaining function (i.e., skin moisture-retaining function) of a skin function improving agent can be evaluated. […]

CC(C)=CCC/C(C)=C/CC/C(C)=C/CC/C(C)=C/CC/C(C)=C/CC/C(C)=C/CC/C(C)=C/CC1=C(C)C(=O)c2ccccc2C1=O [Comparative Example 1, menaquinone-7]
keratin moisture fluctuation value (moisture in the keratin, day 28 minus day before administration): no function of keratin water retention; also recorded: no stratum corneum water-retaining function | keratin moisture fluctuation value (moisture in the keratin, day 28 minus day before administration) (listed as menaquinone-7): does not exert the keratin water-retaining function; also recorded: does not exert the stratum corneum water-retaining function
